# Measured values published in patent EP0034754A1, “2-((3-amino-2-hydroxy-propoxy)-styryl) isoxazoles, process for their preparation and pharmaceutical compositions containing them” (BASF Aktiengesellschaft, priority 1980, dated 1981).
# Tested on: Isoproterenol-Tachycardie
# Assay: ß-sympatholytic effect: inhibition of isoproterenol-induced tachycardia in despinalised rats
# Assay type: in vivo
# Details: Rattus norvegicus, iv, 5 min, read-out: ß-Sympatholytische Wirkung Ratte i.v. ED 50 %
# Procedure: ß-sympatholytische Wirkung: • An despinalisierten Ratten (Stamm: Sprague Dawley, männlich, Gewicht 200 bis 240 g) verursacht Isoproterenol (0,1/ug/kg intravenös) Herfrequenzsteigerungen um durchschnittlich 121 + 2,1 min bei einer Ausgangsfrequenz von 268 + 3,9 min^-1 (Anzahl der Tiere N = 100). ß-Sympatholytika hemmen diese Frequenzsteigerungen spezifisch und dosisabhängig. Die Applikation der getesteten Substanzen erfolgt 5 min vor der Isoproterenolgabe.
# Als ED 50 % werden die Dosen ermittelt, welche die Isoproterenol-Tachycardie um 50 % hemmen.
# Als Referenzsubstanz dient das bekannte ß-Sympatholytikum Propranolol.
row,Compound,ED50
1,"CC(C)NCC(O)COc1cccc2ccccc12 (stereo not drawn) [Propranolol, reference compound]",0.0127 mg/kg

# Same assay, conditions: Rattus norvegicus, iv, 5 min; despinalised Sprague Dawley rats, i.v., given 5 min before isoproterenol 0,1 µg/kg i.v.; dose inhibiting tachycardia by 50 %; read-out: ß-Sympatholytische Wirkung Ratte i.v. ED 50 %
row,Compound,ED50
1,"COCc1cc(C=Cc2ccccc2OCC(O)CNC(C)C)on1 (stereo not drawn) [Beispiel 3, 3-Methoxymethyl-5-[2-(2-hydroxy-3-isopropylamino-propoxy)--styryl]-isoxazol]",0.0064 mg/kg
2,"COCc1cc(C=Cc2ccccc2OCC(O)CNC(C)(C)C)on1 (stereo not drawn) [Beispiel 4, 3-Methoxymethyl-5-[2-(2-hydroxY-3-tert.-butylamino-prop-oxy)-styryl]-isoxazol]",0.00742 mg/kg
3,"COCc1cc(C=Cc2ccccc2OCC(O)CNC2CC2)on1 (stereo not drawn) [Beispiel 9, 5-[2-(2-Hydroxy-3-cyclopropylamino-propoxy)-styryl]-3-methoxymethyl-isoxazol]",0.01 mg/kg
4,"Cc1noc(C=Cc2ccccc2OCC(O)CNC(C)(C)C)c1Cl (stereo not drawn) [Beispiel 16, 4-Chlor-3-methyl-5-[2-(2-hydroxy-3-tert.-butylamino-prop-oxy)-styryl]-isoxazol]",0.01 mg/kg
5,"Cc1noc(C=Cc2ccccc2OCC(O)CNC(C)C)c1Cl (stereo not drawn) [Beispiel 17, 4-Chlor-3-methyl-5-[2-(2-hydroxy-3-isopropylamino-prop-oxy)-styryl]-isoxazol]",0.00681 mg/kg

# Tested on: mittleren Carotisdruck
# Assay: Blood-pressure-lowering effect in the anaesthetised rat (urethane), carotid pressure
# Assay type: in vivo, Ratte
# Details: Rattus norvegicus, iv; Sprague Dawley rats under urethane anaesthesia, i.v.; dose lowering mean carotid pressure by 20 %; read-out: Blutdrucksenkende Wirkung Ratte i.v. ED 20 %
# Source text: Blutdrucksenkende Wirkung an der narkotisierten Ratte: • Zur Feststellung der blutdrucksenkenden Wirkung erhalten männliche Ratten (Stamm: Sprague Dawley, Gewicht: 230 bis 280 g) in Urethan-Narkose (1,78 g/kg intraperitoneal) die Prüfsubstanzen intravenös appliziert. Die Messung des Blutdruckes in der Aorta carotis erfolgt über Statham--Transducer.
# Als ED 20 % wird die Dosis ermittelt, welche den mittleren Carotisdruck um 20 % senkt.
row,Compound,ED20
1,"COCc1cc(C=Cc2ccccc2OCC(O)CNC(C)C)on1 (stereo not drawn) [Beispiel 3, 3-Methoxymethyl-5-[2-(2-hydroxy-3-isopropylamino-propoxy)--styryl]-isoxazol]",1 mg/kg
2,"COCc1cc(C=Cc2ccccc2OCC(O)CNC(C)(C)C)on1 (stereo not drawn) [Beispiel 4, 3-Methoxymethyl-5-[2-(2-hydroxY-3-tert.-butylamino-prop-oxy)-styryl]-isoxazol]",1 mg/kg
3,"Cc1noc(C=Cc2ccccc2OCC(O)CNC(C)(C)C)c1Cl (stereo not drawn) [Beispiel 16, 4-Chlor-3-methyl-5-[2-(2-hydroxy-3-tert.-butylamino-prop-oxy)-styryl]-isoxazol]",1 mg/kg
4,"Cc1noc(C=Cc2ccccc2OCC(O)CNC(C)C)c1Cl (stereo not drawn) [Beispiel 17, 4-Chlor-3-methyl-5-[2-(2-hydroxy-3-isopropylamino-prop-oxy)-styryl]-isoxazol]",1.95 mg/kg

# Same assay, conditions: rat, i.v., up to a dose of 2,15 mg/kg
row,Compound,Blutdrucksenkende Wirkung
1,"CC(C)NCC(O)COc1cccc2ccccc12 (stereo not drawn) [Propranolol, reference compound]","senkt den Blutdruck bis zu einer Dosis von 2,15 mg/kg nicht"

# Tested on: not listed separately
# Assay: in vivo
# Details: not given
row,Compound,selectivity ratio
1,"COCc1cc(C=Cc2ccccc2OCC(O)CNC(C)C)on1 (stereo not drawn) [Beispiel 3, 3-Methoxymethyl-5-[2-(2-hydroxy-3-isopropylamino-propoxy)--styryl]-isoxazol]",18900
2,"COCc1cc(C=Cc2ccccc2OCC(O)CNC(C)(C)C)on1 (stereo not drawn) [Beispiel 4, 3-Methoxymethyl-5-[2-(2-hydroxY-3-tert.-butylamino-prop-oxy)-styryl]-isoxazol]",13500
3,"COCc1cc(C=Cc2ccccc2OCC(O)CNC2CC2)on1 (stereo not drawn) [Beispiel 9, 5-[2-(2-Hydroxy-3-cyclopropylamino-propoxy)-styryl]-3-methoxymethyl-isoxazol]",12100
4,"Cc1noc(C=Cc2ccccc2OCC(O)CNC(C)(C)C)c1Cl (stereo not drawn) [Beispiel 16, 4-Chlor-3-methyl-5-[2-(2-hydroxy-3-tert.-butylamino-prop-oxy)-styryl]-isoxazol]",14700
5,"Cc1noc(C=Cc2ccccc2OCC(O)CNC(C)C)c1Cl (stereo not drawn) [Beispiel 17, 4-Chlor-3-methyl-5-[2-(2-hydroxy-3-isopropylamino-prop-oxy)-styryl]-isoxazol]",75000

# Same assay, conditions: mouse, ip
row,Compound,LD50
1,"COCc1cc(C=Cc2ccccc2OCC(O)CNC(C)C)on1 (stereo not drawn) [Beispiel 3, 3-Methoxymethyl-5-[2-(2-hydroxy-3-isopropylamino-propoxy)--styryl]-isoxazol]",121 mg/kg
2,"COCc1cc(C=Cc2ccccc2OCC(O)CNC(C)(C)C)on1 (stereo not drawn) [Beispiel 4, 3-Methoxymethyl-5-[2-(2-hydroxY-3-tert.-butylamino-prop-oxy)-styryl]-isoxazol]",100 mg/kg
3,"COCc1cc(C=Cc2ccccc2OCC(O)CNC2CC2)on1 (stereo not drawn) [Beispiel 9, 5-[2-(2-Hydroxy-3-cyclopropylamino-propoxy)-styryl]-3-methoxymethyl-isoxazol]",121 mg/kg
4,"Cc1noc(C=Cc2ccccc2OCC(O)CNC(C)(C)C)c1Cl (stereo not drawn) [Beispiel 16, 4-Chlor-3-methyl-5-[2-(2-hydroxy-3-tert.-butylamino-prop-oxy)-styryl]-isoxazol]",147 mg/kg
5,"Cc1noc(C=Cc2ccccc2OCC(O)CNC(C)C)c1Cl (stereo not drawn) [Beispiel 17, 4-Chlor-3-methyl-5-[2-(2-hydroxy-3-isopropylamino-prop-oxy)-styryl]-isoxazol]",511 mg/kg
